Experimental data taken from patent US11420962B2, “Indene derivatives useful in treating pain and inflammation” (TARO PHARMACEUTICALS INC., priority 2018, dated 2022).

Assays:
Rat DRG = assay: Rat dorsal root ganglion excitability response (EFS, Ca2+ transients); format: cell-based; conditions: Rattus norvegicus; Table 3; electrical field stimulation, Ca5 indicator; read-out: Scoring (EC50, Rat DRG excitability)
Procedure: Dorsal root ganglions (DRGs) were dissected from adult rats. The tissue was processed, and cells were seeded into call culture plates (48 center wells of one quadrant in 384-well plates) and cultured for 2 days prior to Electrical field stimulation (EFS). To visualize the neuronal excitability response, intracellular Ca^+2 transients were monitored using the Ca^+2 indicator, Ca5. Ca5 was added to the cultures 1 h prior to EFS. Representative test compounds of the invention (i.e., test compounds) and reference compound, tetracaine, were added in concentration-response format encompassing six concentrations, performed in duplicate. The highest concentration tested was typically 30 μM with 1 in 3 dilutions generating the subsequent concentrations.
Effects on DRG excitability by the test compounds and standard were evaluated using four EFS protocols as disclosed in Table 2.
Experimental results were performed using two separate sets of plates using separate test compound and standard dilutions, to provide n=2. In the first set of experiments, compounds were added 24 h prior to EFS to increase the possibility to also detect more long-term compound effects. In the second set of experiments the compounds were added directly prior to EFS. Excitability response to EFS was analyzed as the average fluorescence ratio (peak/baseline) change per well. All plates were evaluated using high content imaging equipment post-EFS, imaging the Ca5 background staining to detect any possible compound-related toxic effects.
Average response by the standard compound, tetracaine, was 4.05 μM.

[1] = Metabolism by human liver microsomes; format: in vitro ADME; conditions: Table 8; 10 µM, in the presence of NADPH, 1 mg/mL protein
Procedure: Representative compounds of the invention (i.e., test compounds) and the positive control, 7-ethoxycoumarin, were prepared as stock solutions at 10 mM in DMSO and eventually diluted to 10 μM in the test plate, with an appropriate amount of acetonitrle and tris HCl buffer. Final DMSO and acetonitrile concentrations were […] and 0.5% respectively. NADPH was prepared in tris HCl buffer to a stock of 10 mM. A frozen aliquot of live microsomes was retrieved from the freezer (−80° C.) and thawed by placing the tube on wet ice. After thawing, the tubes were gently mixed and the required amount, transferred to tris HCl buffer. Test compounds or positive control were pre-incubated, separately, for 10 minutes, with liver microsomes (1 mg/mL protein), at 37° C., in 100 mM Tris HCl at pH 7.5. After preincubation the reaction was started by adding 1 mM NADPH (pre-equilibrated to […]) and the reaction allowed to proceed for 60 minutes. At 60 minutes, a 50 μL aliquot was removed and quenched with 200 uL of acetonitrile containing a mixture of internal standards (Tolbutamide (500 ng/mL) and Telmistartan (500 ng/mL)) and vortexed then centrifuged at 4000 rmp for 10 minutes (Eppendorf 5810R). The supernatant was transferred to a 96 well plate for LC-MS/MS analysis.
An LC-MS/MS method was devised for the test compounds and the control, using a AB Sciex API 4000 system coupled to a NEXAR™ UHPLC (Shimadzu) system. Analytes were separated on a Phenomenex Kinetex C18 column (50×2.1 mm, 5 μm) using a gradient that was appropriate for each compound, at a flow rate of 1 ml/minute, utilizing a mobile phase of 0.1% formic acid in MILLI-Q™ water (A) and 0.1% formic acid in acetonitrile (B). The MS instrument was operated in positive mode (ESI+)/negative (ESI−). The multiple reaction monitoring (MRM) transition for test and control compounds was used for the LC-MS/MS analysis. MRM transitions for control compound 7-ethoxycoumarinm were Quadropole 1: 191.0, Quadropole 3: 163.0, dwell time: 75 msec, using curtain gas settings of 5 V, ion-spray voltage of 5500 V, temperature of 50° C. and gas settings for nebulizer and auxiliary set to 30 and 40 psi, respectively. The interface heater was kept on. Entrance potential and collision cell exit potential were varied to tune for a specific compound.
Using a suitable LC-MS/MS method, the percentage of drug remaining at 60 minutes ([…]) was assessed by comparing the average analyte to internal standard area ratio at 60 minutes to the average analyte to internal standard area ratio at 0 time control, as a percentage, from a 5 to 10 μL sample injection.
According to the above assay, the representative compounds listed in Table 8 below were active in the Human liver microsome assay at […] and the % of drug remaining after 60 minutes (PDR60), in the presence of NADPH, was assessed by LC-MS/MS. Average PDR60 for the standard compound, 7-ethoxycoumarin was <=65% in the presence of NADPH. Scoring for the test compounds, in the presence of NADPH, was as follows: “A” represents a PDR^60 of 81 to 100%, “B” represents a PDR^60 of 61 to 80%, “C” represents a PDR^60 of 31 to 60% and “D” represents a PDR^60 of 0 to 30%.

With `C=C1CC[C@H]2[C@H](CN)[C@@H]([C@@]3(C)Cc4cn(Cc5ccccc5)nc4C[C@@H]3CO)CC[C@]12C` [Ia-19, ((5R,6S)-5-((3aS,4R,5S,7aS)-4-(aminomethyl)-7a-methyl-1-methyleneoctahydro-1H-inden-5-yl)-2-benzyl-5-methyl-4,5,6,7-tetrahydro-2H-indazol-6-yl)methanol] the EC50 (Rat DRG) was 2 to 6 µM and the “Scoring (% of drug remaining after 60 minutes, PDR60)” value [1] was “B (a PDR^60 of 61 to 80%)”.
With `C=C1CC[C@H]2[C@H](CN)[C@@H]([C@@]3(C)Cc4cnn(-c5cccnc5)c4C[C@@H]3CO)CC[C@]12C` [Ia-20, ((5R,6S)-5-((3aS,4R,5S,7aS)-4-(aminomethyl)-7a-methyl-1-methyleneoctahydro-1H-inden-5-yl)-5-methyl-1-(pyridin-3-yl)-4,5,6,7-tetrahydro-1H-indazol-6-yl)methanol] the EC50 (Rat DRG) was 6 to 15 µM and the “Scoring (% of drug remaining after 60 minutes, PDR60)” value [1] was “D (a PDR^60 of 0 to 30%)”.
For `C=C1CC[C@H]2[C@H](CN)[C@@H]([C@@]3(C)Cc4cnn(CC(C)(C)C)c4C[C@@H]3CO)CC[C@]12C` [Ia-22, ((5R,6S)-5-((3aS,4R,5S,7aS)-4-(aminomethyl)-7a-methyl-1-methyleneoctahydro-1H-inden-5-yl)-5-methyl-1-neopentyl-4,5,6,7-tetrahydro-1H-indazol-6-yl)methanol], the EC50 (Rat DRG) was 2 to 6 µM and the “Scoring (% of drug remaining after 60 minutes, PDR60)” value [1] was “D (a PDR^60 of 0 to 30%)”.
For `C[C@H]1CC[C@H]2[C@H](CN)[C@@H]([C@@]3(C)Cc4cn(-c5ccccc5)nc4C[C@@H]3CO)CC[C@]12C` [Ia-36, ((5R,6S)-5-((1S,3aS,4S,5S,7aR)-4-(aminomethyl)-1,7a-dimethyloctahydro-1H-inden-5-yl)-5-methyl-2-phenyl-4,5,6,7-tetrahydro-2H-indazol-6-yl)methanol], the EC50 (Rat DRG) was 2 to 6 µM and the “Scoring (% of drug remaining after 60 minutes, PDR60)” value [1] was “A (a PDR^60 of 81 to 100%)”.
In the case of `C[C@H]1CC[C@H]2[C@H](CN)[C@@H]([C@@]3(C)Cc4cn(C(C)(C)C)nc4C[C@@H]3CO)CC[C@]12C` [Ia-41, ((5R,6S)-5-((1S,3aS,4S,5S,7aR)-4-(aminomethyl)-1,7a-dimethyloctahydro-1H-inden-5-yl)-2-(tert-butyl)-5-methyl-4,5,6,7-tetrahydro-2H-indazol-6-yl)methanol], the EC50 (Rat DRG) is reported as under 2 µM and the “Scoring (% of drug remaining after 60 minutes, PDR60)” value [1] is reported as “A (a PDR^60 of 81 to 100%)”.
In the case of `C=C1CC[C@H]2[C@H](CN3CCCCC3)[C@@H]([C@@]3(C)Cc4cn[nH]c4C[C@@H]3CO)CC[C@]12C` [Ia-47, ((5R,6S)-5-methyl-5-((3aS,4R,5S,7aS)-7a-methyl-1-methylene-4-(piperidin-1-ylmethyl)octahydro-1H-inden-5-yl)-4,5,6,7-tetrahydro-1H-indazol-6-yl)methanol], the EC50 (Rat DRG) is reported as 6 to 15 µM and the “Scoring (% of drug remaining after 60 minutes, PDR60)” value [1] is reported as “D (a PDR^60 of 0 to 30%)”.
For `C=C1CC[C@H]2[C@H](CN3CCN(C)CC3)[C@@H]([C@@]3(C)Cc4cn[nH]c4C[C@@H]3CO)CC[C@]12C` [Ia-48, ((5R,6S)-5-methyl-5-((3aS,4R,5S,7aS)-7a-methyl-1-methylene-4-((4-methylpiperazin-1-yl)methyl)octahydro-1H-inden-5-yl)-4,5,6,7-tetrahydro-1H-indazol-6-yl)methanol], the EC50 (Rat DRG) was 6 to 15 µM and the “Scoring (% of drug remaining after 60 minutes, PDR60)” value [1] was “D (a PDR^60 of 0 to 30%)”.
With `CC=C1CC[C@H]2[C@H](CN)[C@@H]([C@@]3(C)Cc4cn[nH]c4C[C@@H]3CO)CC[C@]12C` [Ia-65, ((5R,6S)-5-((3aS,4R,5S,7aS)-4-(aminomethyl)-1-ethylidene-7a-methyloctahydro-1H-inden-5-yl)-5-methyl-4,5,6,7-tetrahydro-1H-indazol-6-yl)methanol] the EC50 (Rat DRG) was 6 to 15 µM and the “Scoring (% of drug remaining after 60 minutes, PDR60)” value [1] was “A (a PDR^60 of 81 to 100%)”.
With `C=C1CC[C@H]2[C@H](CO)[C@@H]([C@@]3(C)Cc4cn[nH]c4C[C@@H]3CN3CCOCC3)CC[C@]12C` [Ia-72, ((3aS,4R,5S,7aS)-7a-methyl-5-((5R,6S)-5-methyl-6-(morpholinomethyl)-4,5,6,7-tetrahydro-1H-indazol-5-yl)-1-methyleneoctahydro-1H-inden-4-yl)methanol] the EC50 (Rat DRG) was over 15 µM and the “Scoring (% of drug remaining after 60 minutes, PDR60)” value [1] was “D (a PDR^60 of 0 to 30%)”.
In the case of `C=C1CC[C@H]2[C@H](CN)[C@@H]([C@@]3(C)Cc4cn[nH]c4C[C@@H]3CN3CCOCC3)CC[C@]12C` [Ia-76, ((3aS,4R,5S,7aS)-7a-methyl-5-((5R,6S)-5-methyl-6-(morpholinomethyl)-4,5,6,7-tetrahydro-1H-indazo1-5-yl)-1-methyleneoctahydro-1H-inden-4-yl)methanamine], the EC50 (Rat DRG) is reported as 6 to 15 µM and the “Scoring (% of drug remaining after 60 minutes, PDR60)” value [1] is reported as “D (a PDR^60 of 0 to 30%)”.
With `C=C1CC[C@H]2[C@H](CO)[C@@H]([C@@]3(C)Cc4cn[nH]c4C[C@@H]3CN)CC[C@]12C` [Ia-82, ((3aS,4R,5S,7aS)-5-((5R,6S)-6-(aminomethyl)-5-methyl-4,5,6,7-tetrahydro-1H-indazol-5-yl)-7a-methyl-1-methyleneoctahydro-1H-inden-4-yl)methanol] the EC50 (Rat DRG) was 6 to 15 µM and the “Scoring (% of drug remaining after 60 minutes, PDR60)” value [1] was “B (a PDR^60 of 61 to 80%)”.
For `C=C1CC[C@H]2[C@H](CN)[C@@H]([C@@]3(C)Cc4nccnc4C[C@@H]3CO)CC[C@]12C` [Ib-2, ((6S,7R)-7-((3aS,4R,5S,7aS)-4-(aminomethyl)-7a-methyl-1-methyleneoctahydro-1H-inden-5-yl)-7-methyl-5,6,7,8-tetrahydroquinoxalin-6-yl)methanol], the EC50 (Rat DRG) was over 15 µM and the “Scoring (% of drug remaining after 60 minutes, PDR60)” value [1] was “B (a PDR^60 of 61 to 80%)”.
In the case of `C=C1CC[C@H]2[C@H](CN)[C@@H]([C@@]3(C)Cc4cnc(N)nc4C[C@@H]3CO)CC[C@]12C` [Ic-1, ((6R,7S)-2-amino-6-((3aS,4R,5S,7aS)-4-(aminomethyl)-7a-methyl-1-methyleneoctahydro-1H-inden-5-yl)-6-methyl-5,6,7,8-tetrahydroquinazolin-7-yl)methanol], the EC50 (Rat DRG) is reported as over 15 µM and the “Scoring (% of drug remaining after 60 minutes, PDR60)” value [1] is reported as “A (a PDR^60 of 81 to 100%)”.
With `C=C1CC[C@H]2[C@H](CN)[C@@H]([C@@]3(C)Cc4cncnc4C[C@@H]3CO)CC[C@]12C` [Ic-3, ((6R,7S)-6-((3aS,4R,5S,7aS)-4-(aminomethyl)-7a-methyl-1-methyleneoctahydro-1H-inden-5-yl)-6-methyl-5,6,7,8-tetrahydroquinazolin-7-yl)methanol] the EC50 (Rat DRG) was over 15 µM and the “Scoring (% of drug remaining after 60 minutes, PDR60)” value [1] was “A (a PDR^60 of 81 to 100%)”.
With `C=C1CC[C@H]2[C@H](CN)[C@@H]([C@@]3(C)Cc4cc[nH]c4C[C@@H]3CO)CC[C@]12C` [Id-1, ((5R,6S)-5-((3aS,4R,5S,7aS)-4-(aminomethyl)-7a-methyl-1-methyleneoctahydro-1H-inden-5-yl)-5-methyl-4,5,6,7-tetrahydro-1H-indol-6-yl)methanol] the EC50 (Rat DRG) was 6 to 15 µM and the “Scoring (% of drug remaining after 60 minutes, PDR60)” value [1] was “C (a PDR^60 of 31 to 60%)”.
